The source of these data is paper PMC7824300, “Expanding the Structural Diversity of DNA Methyltransferase Inhibitors” (Pharmaceuticals, 2020).

SMILES strings stand for the structures. Read-outs that look alike come from different tables or passages of the source.

One experiment addresses T1, DNMT1 (Homo sapiens, UniProt P26358).
T1 construct: purchased Reaction Biology Corporation (contract screening service)
The experiment can be described thus: HotSpot radioisotope methyltransferase assay, DNMT1 (Poly dI-dC substrate). It counts as biochemical. As to conditions: for inhibition at 100 µM / relative enzymatic activity of DNMT1 / inhibition of DNMT1: 100 μM compound; for relative enzymatic activity of DNMT1: mean of two measurements ± SD; for inhibition of DNMT1: 100 µM. On the procedure: First, the 10 compounds were tested at a single concentration (100 μM) in duplicate in a biochemical DNMT assay. […] Predicted binding modes for the five compounds were studied using molecular docking, implementing a novel re-scoring algorithm recently developed.
The inhibition of the enzymatic activity of DNMT1, DNMT3B, and DNMT3B/3L was tested using the HotSpot^SM platform for methyltransferase assays available at Reaction Biology Corporation. HotSpot^SM is a low volume radioisotope-based assay that uses tritium-labeled AdoMet (^3H-SAM) as a methyl donor. The test compounds diluted in dimethyl sulfoxide were added using acoustic technology (Echo550, Labcyte) into enzyme/substrate mixture in the nano-liter range. The corresponding reactions were commenced by the addition of ^3H-SAM and incubated at 30°C. Total final methylations on the substrate (Poly dI-dC in DNMT1 assay, and Lambda DNA in DNMT3B; DNMT3B/3L assay) were identified by a filter binding method implemented in Reaction Biology. Data analysis was conducted with Graphed Prism software (La Jolla, CA, USA) for curve fits. Reactions were carried out at 1 μM of SAM. […] The 10 compounds were tested first with DNMT1 and DNMT3B at one 100 μM concentration in duplicate. […] Theaflavin was also tested with DNMT3B and DNMT3B/L in 10-dose IC50 with threefold serial dilution starting at 100 μM.

A further experiment addresses T2, DNMT3B (Homo sapiens, UniProt Q9UBC3).
T2 construct: purchased Reaction Biology Corporation (contract screening service)
The experiment can be described thus: HotSpot radioisotope methyltransferase assay, DNMT3B (Lambda DNA substrate). The format is biochemical. As to conditions: for relative enzymatic activity of DNMT3B: mean of two measurements ± SD, 1 μM SAM. The protocol: First, the 10 compounds were tested at a single concentration (100 μM) in duplicate in a biochemical DNMT assay. SAH was used as a reference. […] Predicted binding modes for the five compounds were studied using molecular docking, implementing a novel re-scoring algorithm recently developed.
(§1) The inhibition of the enzymatic activity of DNMT1, DNMT3B, and DNMT3B/3L was tested using the HotSpot^SM platform for methyltransferase assays available at Reaction Biology Corporation. HotSpot^SM is a low volume radioisotope-based assay that uses tritium-labeled AdoMet (^3H-SAM) as a methyl donor. The test compounds diluted in dimethyl sulfoxide were added using acoustic technology (Echo550, Labcyte) into enzyme/substrate mixture in the nano-liter range. The corresponding reactions were commenced by the addition of ^3H-SAM and incubated at 30°C. Total final methylations on the substrate (Poly dI-dC in DNMT1 assay, and Lambda DNA in DNMT3B; DNMT3B/3L assay) were identified by a filter binding method implemented in Reaction Biology. Data analysis was conducted with Graphed Prism software (La Jolla, CA, USA) for curve fits. Reactions were carried out at 1 μM of SAM. In all assays, SAH was used as a standard positive control. The 10 compounds were tested first with DNMT1 and DNMT3B at one 100 μM concentration in duplicate. […] Theaflavin was also tested with DNMT3B and DNMT3B/L in 10-dose IC50 with threefold serial dilution starting at 100 μM. The authors have previously contracted the screening services of Reaction Biology Corporation to identify a novel inhibitor of DNMT1 [24].

For another experiment, the target named is T3, DNMT3B/3L (Homo sapiens, UniProt Q9UBC3).
T3 construct: purchased Reaction Biology Corporation (contract screening service)
The experiment can be described thus: HotSpot radioisotope methyltransferase assay, DNMT3B/3L (Lambda DNA substrate). The format is biochemical. Particulars: 10-dose, threefold serial dilution starting at 100 μM. On the procedure: as §1

The target in experiment [1] is viral NS5 RNA methyltransferase. Set-up: method as in PMID 20108931. Particulars: cited from earlier work.
Experiment [2] shares this target. Set-up: method as in PMID 20108931. Particulars: cited from earlier work. The source holds these as a separate data set.
The next experiment concerns U373MG cell line. As to conditions: read-out: IC50 for U373MG cell line; human glioblastoma cell line harboring inactive mutant p53; cited from earlier work.
In the next experiment the test system is Hut78 cell line. Particulars: read-out: IC50 for Hut78 cell line; cutaneous T cell lymphoma; cited from earlier work.
The test system of a further experiment is A549 cell line. Particulars: read-out: IC50 for A549 cell line; human lung cancer cell line harboring wild-type p53; cited from earlier work.
The mark [3] stands for this setting: Table 3, read-out: % Inhibition (DNMT1).
Where [4] appears, read: rounded values, read-out: inhibition of DNMT1.
[5] abbreviates: 10-dose, threefold serial dilution starting at 100 μM, 1 μM SAM, mean of two measurements, read-out: DNMT1 IC50.
Setting [6] is: 100 μM compound, rounded values.

T1 sequence (P26358 whole entry): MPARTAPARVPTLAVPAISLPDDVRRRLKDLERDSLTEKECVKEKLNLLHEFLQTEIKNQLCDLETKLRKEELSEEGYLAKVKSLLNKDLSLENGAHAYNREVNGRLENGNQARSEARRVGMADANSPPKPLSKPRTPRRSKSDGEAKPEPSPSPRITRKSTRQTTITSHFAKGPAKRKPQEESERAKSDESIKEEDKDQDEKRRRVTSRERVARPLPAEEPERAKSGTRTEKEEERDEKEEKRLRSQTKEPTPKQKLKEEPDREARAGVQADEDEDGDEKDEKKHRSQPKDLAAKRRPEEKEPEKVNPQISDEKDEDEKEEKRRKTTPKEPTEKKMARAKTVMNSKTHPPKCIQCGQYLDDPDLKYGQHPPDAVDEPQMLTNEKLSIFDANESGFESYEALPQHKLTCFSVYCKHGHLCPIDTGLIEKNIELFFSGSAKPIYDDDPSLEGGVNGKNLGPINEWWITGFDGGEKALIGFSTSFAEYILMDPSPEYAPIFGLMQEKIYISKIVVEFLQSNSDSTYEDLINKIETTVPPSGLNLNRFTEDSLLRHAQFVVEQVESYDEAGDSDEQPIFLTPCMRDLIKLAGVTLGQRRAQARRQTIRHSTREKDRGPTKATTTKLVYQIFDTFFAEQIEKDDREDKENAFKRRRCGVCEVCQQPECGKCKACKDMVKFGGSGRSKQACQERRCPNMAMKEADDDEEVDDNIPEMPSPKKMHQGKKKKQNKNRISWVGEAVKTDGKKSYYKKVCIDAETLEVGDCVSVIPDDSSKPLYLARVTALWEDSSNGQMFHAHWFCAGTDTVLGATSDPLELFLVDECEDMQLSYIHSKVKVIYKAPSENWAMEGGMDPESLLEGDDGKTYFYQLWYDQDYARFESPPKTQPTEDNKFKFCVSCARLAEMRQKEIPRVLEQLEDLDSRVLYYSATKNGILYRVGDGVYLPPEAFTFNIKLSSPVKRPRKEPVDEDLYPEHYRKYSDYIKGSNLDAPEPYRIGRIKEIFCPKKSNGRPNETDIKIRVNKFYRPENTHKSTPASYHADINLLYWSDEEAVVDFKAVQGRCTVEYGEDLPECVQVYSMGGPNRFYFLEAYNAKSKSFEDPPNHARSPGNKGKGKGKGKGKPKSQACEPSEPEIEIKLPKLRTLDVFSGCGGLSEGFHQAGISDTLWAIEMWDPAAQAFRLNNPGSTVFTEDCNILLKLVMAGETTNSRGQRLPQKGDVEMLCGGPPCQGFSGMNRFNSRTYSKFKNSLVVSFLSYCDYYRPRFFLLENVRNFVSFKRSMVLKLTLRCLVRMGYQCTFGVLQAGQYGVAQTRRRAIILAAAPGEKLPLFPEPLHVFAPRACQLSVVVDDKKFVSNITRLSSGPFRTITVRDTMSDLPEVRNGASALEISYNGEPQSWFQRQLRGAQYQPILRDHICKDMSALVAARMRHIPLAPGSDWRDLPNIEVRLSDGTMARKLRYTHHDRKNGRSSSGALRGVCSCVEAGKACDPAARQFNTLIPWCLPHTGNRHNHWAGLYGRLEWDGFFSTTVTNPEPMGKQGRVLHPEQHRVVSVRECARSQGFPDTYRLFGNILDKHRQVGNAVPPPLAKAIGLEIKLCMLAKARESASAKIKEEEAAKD

For `Cc1cc(NCc2nnc(Cc3ccccc3)o2)ccc1C(N)=O` [CSC027694519], the inhibition at 100 µM at DNMT1 (setting [3]) came out at 64.6%; at DNMT1 (setting [4]), 65%. For the same molecule, on DNMT1 (1 μM SAM), the “relative enzymatic activity of DNMT1” value is recorded as 35.42 (±1.78) %. At DNMT1 (setting [5]), the IC50 is 85.1 µM. For the same molecule, the “relative enzymatic activity of DNMT3B” value at DNMT3B (100 μM compound) is 97.42 (±2.49) %.
As for `COc1ccc(S(=O)(=O)Nc2c(C)n(C)n(-c3ccccc3)c2=O)cc1C(=O)O` [compound 6631802], the inhibition at 100 µM at DNMT1 (setting [3]) was found to be 6.74%. In addition, on DNMT1 (1 μM SAM), the “relative enzymatic activity of DNMT1” value is recorded as 93.26 (±7.97) %. Moreover, the “relative enzymatic activity of DNMT3B” value on DNMT3B (100 μM compound) is recorded as 93.54 (±0.54) %.
On the same counts, the results for `CC(C)(CC(=O)Nc1cccc(Cn2cccn2)c1)C(=O)O` [CSC027796832] are -7.25%, 107.25 (±0.59) % and 95.28 (±0.47) %.
With `Cc1cc(NC(=O)CN2CCN(c3cc(C(N)=O)c4ccccc4n3)CC2)no1` [CSC027480404], the inhibition at 100 µM was 30% on DNMT1 (setting [3]) and 29% at DNMT1 (setting [4]). At DNMT1 (1 μM SAM), the “relative enzymatic activity of DNMT1” value was 70.63 (±0.19) %. Further, the “inhibition of DNMT1” value against DNMT1 (rounded values) is 30%. Besides, the “relative enzymatic activity of DNMT3B” value at DNMT3B (100 μM compound) was 96.39 (±0.28) %.
`O=c1c(O)cc([C@H]2Oc3cc(O)cc(O)c3C[C@H]2O)cc2c([C@H]3Oc4cc(O)cc(O)c4C[C@H]3O)cc(O)c(O)c12` [Theaflavin]: the IC50 against DNMT3B/3L was more than 100 µM; at DNMT1 (setting [5]), 85.3 µM; against DNMT3B (10-dose, threefold serial dilution starting at 100 μM) it was more than 100 µM. Besides, the results for the inhibition at 100 µM on DNMT1 (setting [3]), on DNMT1 (setting [4]) and against DNMT3B (setting [6]) were 65.4%, 65% and 33%, respectively. The “relative enzymatic activity of DNMT1” value on DNMT1 (1 μM SAM) was 34.62 (±0.06) %. Also, the “relative enzymatic activity of DNMT3B” value on DNMT3B (100 μM compound) is given as 66.75 (±1.11) %.
Regarding `O=C(O)c1ccc(NS(=O)(=O)c2ccc(N3CCCC3=O)cc2)cc1` [CSC027083851], the inhibition at 100 µM on DNMT1 (setting [3]) is -5.71%. Also, the “relative enzymatic activity of DNMT1” value on DNMT1 (1 μM SAM) was 105.71 (±1.27) %. In addition, the “relative enzymatic activity of DNMT3B” value at DNMT3B (100 μM compound) is on record as 97.85 (±5.66) %.
With `Cc1ccnc2nc(C(=O)Nc3nc(-c4ccc5c(c4)OCO5)cs3)nn12` [CSC026286840], the inhibition at 100 µM on DNMT1 (setting [3]) turned out to be 26.6%; at DNMT1 (setting [4]), 27%. The “relative enzymatic activity of DNMT1” value at DNMT1 (1 μM SAM) was 73.45 (±3.06) %. At DNMT1 (rounded values), the “inhibition of DNMT1” value worked out at 30%. For the same molecule, the “relative enzymatic activity of DNMT3B” value on DNMT3B (100 μM compound) was 90.59 (±2.49) %.
In the case of `Cc1ccc(Cl)cc1NS(=O)(=O)c1ccc(NS(=O)(=O)c2ccc3ccccc3c2)cc1` [compound 7936171], the inhibition at 100 µM amounted to 62.3% on DNMT1 (setting [3]), 62% at DNMT1 (setting [4]) and 22% at DNMT3B (setting [6]). Also, on DNMT1 (1 μM SAM), the “relative enzymatic activity of DNMT1” value is 37.74 (±2.15) %. Also, the IC50 at DNMT1 (setting [5]) was 78.5 µM; at DNMT1 (-log value of the IC50, read-out: pIC50 (DNMT1) (converted)), 77.6 µM; in experiment [1], 64.2 µM. In addition, the EC50 in experiment [2] is 12 µM. For the same molecule, the “relative enzymatic activity of DNMT3B” value on DNMT3B (100 μM compound) is given as 78.20 (±0.30) %. Moreover, on DNMT3B (100 μM compound, rounded values, listed as naphthalene sulfonamide, 100 µM), the “inhibition of DNMT3B” value is recorded as “higher than 20%”.
Turning to `COc1ccc(Cl)cc1C(=O)NCCc1ccc(S(=O)(=O)NC(=O)NC2CCCCC2)cc1` [Glyburide, reference compound], the inhibition at 100 µM on DNMT1 (setting [3]) and on DNMT1 (setting [4]) was 60% in each case. Besides, the “relative enzymatic activity of DNMT1” value on DNMT1 (1 μM SAM) is given as 40.04 (±0.78) %. For the same molecule, the IC50 on DNMT1 (setting [5]) is 55.9 µM. Further, at DNMT3B (100 μM compound), the “relative enzymatic activity of DNMT3B” value is 95.97 (±4.76) %.
Consider `NNc1nncc2ccccc12` [Hydralazine], for which the IC50 in the experiment with U373MG cell line is 20 µM; with Hut78 cell line it was 30 µM; in the experiment with A549 cell line, 2 µM.
As for `Cc1[nH]c2ccccc2c1CCNCc1ccc(/C=C/C(=O)NO)cc1` [Panobinostat, reference compound], the values for the inhibition at 100 µM at DNMT1 (setting [3]) and on DNMT1 (setting [4]) were 62.7% and 63%, respectively.
